Experimental findings from PubChem BioAssay AID248 (DTP/NCI, 2004) are described below.

SMILES strings stand for the structures. Where “and” joins values, the source holds several entries; their conditions need not be identical. Equal values may be shown once. Toxic doses and inconclusive results are not listed.

This assay concerns L1210 leukemia ip in BDF1 mice, survival T/C. Briefly: NCI In Vivo Anticancer Drug Screen. Data for tumor model L1210 Leukemia (intraperitoneal) in B6D2F1 (BDF1) mice. As to conditions: endpoint: mean survival time, higher = longer survival. Put shortly:
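Transplanted-tumor mice were given test agent; controls received vehicle only. Survival readings from the two groups were divided (treated over control).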

Where [1] appears, read: dose: 5.0 mg/kg/injection, schedule: Q01DX001 (ip), vehicle: saline.
The mark [2] stands for this setting: dose: 10.0 mg/kg/injection, schedule: Q01DX001 (ip), vehicle: saline.
The mark [3] stands for this setting: dose: 100.0 mg/kg/injection, schedule: Q04DX003 (ip), vehicle: Klucel (hydroxypropylcellulose) (HPC).
[4] abbreviates: dose: 200.0 mg/kg/injection, schedule: Q04DX003 (ip), vehicle: Klucel (hydroxypropylcellulose) (HPC).
Setting [5] is: dose: 400.0 mg/kg/injection, schedule: Q04DX003 (ip), vehicle: Klucel (hydroxypropylcellulose) (HPC).
The mark [6] stands for this setting: dose: 100.0 mg/kg/injection, schedule: Q01DX001 (ip), vehicle: carboxymethylcellulose (CMC).
[7] abbreviates: dose: 400.0 mg/kg/injection, schedule: Q01DX001 (ip), vehicle: carboxymethylcellulose (CMC).
The mark [8] stands for this setting: dose: 100.0 mg/kg/injection, schedule: Q01DX001 (ip), vehicle: saline.
Where [9] appears, read: dose: 200.0 mg/kg/injection, schedule: Q01DX001 (ip), vehicle: saline.

As for `COc1cc2c(cc1OC(C)=O)C(OC(C)=O)CCCC2` (stereo not given), the T/C is, setting by setting: under setting [1], 109 % of control; under setting [2], 109 % of control; (dose: 20.0 mg/kg/injection, schedule: Q01DX001 (ip), vehicle: saline) 97 % of control; (dose: 40.0 mg/kg/injection, schedule: Q01DX001 (ip), vehicle: saline) 105 % of control.

As for `CCS(=O)(=O)N1CCCCC1C` (stereo not given), the T/C is, setting by setting: (dose: 100.0 mg/kg/injection, schedule: Q04DX002 (ip), vehicle: saline with Tween-80) 93 % of control; (dose: 200.0 mg/kg/injection, schedule: Q04DX002 (ip), vehicle: saline with Tween-80) 99 % of control; (dose: 400.0 mg/kg/injection, schedule: Q04DX002 (ip), vehicle: saline with Tween-80) 96 % of control.

Turning to `CCC(C)[P+](c1ccccc1)(c1ccccc1)c1ccccc1` (stereo not given), the T/C (dose: 3.75 mg/kg/injection, schedule: Q01DX001 (ip), vehicle: carboxymethylcellulose (CMC)) is 118 % of control; the T/C (dose: 7.0 mg/kg/injection, schedule: Q01DX015 (ip), vehicle: carboxymethylcellulose (CMC)) was 118 % of control; the T/C (dose: 7.5 mg/kg/injection, schedule: Q01DX001 (ip), vehicle: carboxymethylcellulose (CMC)) is 118 % of control; the T/C (dose: 12.5 mg/kg/injection, schedule: Q04DX002 (ip), vehicle: Klucel (hydroxypropylcellulose) (HPC)) is 109 % of control; the T/C (dose: 14.0 mg/kg/injection, schedule: Q01DX015 (ip), vehicle: carboxymethylcellulose (CMC)) is 120 % of control; the T/C (dose: 15.0 mg/kg/injection, schedule: Q01DX001 (ip), vehicle: carboxymethylcellulose (CMC)) is 119 % of control. The T/C (dose: 25.0 mg/kg/injection, schedule: Q04DX002 (ip), vehicle: Klucel (hydroxypropylcellulose) (HPC)) was 91 % of control.

For the molecule `CC1c2ccccc2N(CCCN(C)C)c2ccccc21`, the T/C is, setting by setting: (dose: 4.0 mg/kg/injection, schedule: Q01DX015 (ip), vehicle: saline) 105 % of control; (dose: 8.0 mg/kg/injection, schedule: Q01DX015 (ip), vehicle: saline) 103 % of control; (dose: 16.0 mg/kg/injection, schedule: Q01DX015 (ip), vehicle: saline) 97 % of control; (dose: 32.0 mg/kg/injection, schedule: Q01DX015 (ip), vehicle: saline) 97 % of control and 100 % of control; (dose: 50.0 mg/kg/injection, schedule: Q04DX003 (ip), vehicle: saline) 108 % of control; (dose: 64.0 mg/kg/injection, schedule: Q01DX015 (ip), vehicle: saline) 97 % of control. Further, the T/C (dose: 128.0 mg/kg/injection, schedule: Q01DX015 (ip), vehicle: saline) is 92 % of control.

`CCCCN=C=NCCC[N+](C)(C)C`: the T/C by setting is: under setting [3], 98 % of control; under setting [4], 107 % of control.

As to `Oc1ccc(C(c2ccc(O)c(Cl)c2)c2ccccn2)cc1Cl`, the T/C runs as follows: under setting [3], 102 % of control; under setting [4], 98 % of control; under setting [5], 100 % of control.

As for `Oc1ccc(Cl)cc1C=Nc1cnc2ccccc2c1`, the T/C is 88 % of control under setting [6] and 101 % of control under setting [7].

For the molecule `Cn1nnnc1CCO`, the T/C (dose: 100.0 mg/kg/injection, schedule: Q01DX001 (ip), vehicle: acetone) is 94 % of control; the T/C (dose: 200.0 mg/kg/injection, schedule: Q01DX001 (ip), vehicle: acetone) was 97 % of control; the T/C (dose: 400.0 mg/kg/injection, schedule: Q01DX001 (ip), vehicle: acetone) was 97 % of control.

In the case of `CN(C)N=Nc1cn(C)c(=O)[nH]c1=O`, the T/C was 114 % of control (dose: 50.0 mg/kg/injection, schedule: Q04DX003 (ip), vehicle: water) and 112 % of control (dose: 400.0 mg/kg/injection, schedule: Q04DX003 (ip), vehicle: water).

Regarding `Cc1ccn(-c2ccccc2)n1`, the T/C was 100 % of control (dose: 100.0 mg/kg/injection, schedule: Q01DX009 (ip), vehicle: other); 101 % of control (dose: 100.0 mg/kg/injection, schedule: Q04DX003 (ip), vehicle: other); 90 % of control (dose: 200.0 mg/kg/injection, schedule: Q01DX009 (ip), vehicle: other); 104 % of control (dose: 200.0 mg/kg/injection, schedule: Q04DX003 (ip), vehicle: other); 107 % of control (dose: 400.0 mg/kg/injection, schedule: Q01DX009 (ip), vehicle: other); 104 % of control (dose: 400.0 mg/kg/injection, schedule: Q04DX003 (ip), vehicle: other).

As for `CCC[CH2][Pb]([CH2]CCC)([CH2]CCC)[O]C(C)=O`, the T/C is, setting by setting: under setting [8], 101 % of control; under setting [9], 95 % of control.

As for `CCCC(=O)NC(=S)Nc1ccccc1`, the T/C (dose: 75.0 mg/kg/injection, schedule: Q01DX001 (ip), vehicle: carboxymethylcellulose (CMC)) is 98 % of control.

For `CC1(C)C(N2CCCCC2)CS1(=O)=O` (stereo not given), the T/C is 103 % of control (dose: 12.5 mg/kg/injection, schedule: Q01DX009 (ip), vehicle: saline sonified); 98 % of control (dose: 25.0 mg/kg/injection, schedule: Q01DX009 (ip), vehicle: saline sonified); 94 % of control (dose: 50.0 mg/kg/injection, schedule: Q01DX009 (ip), vehicle: saline sonified).

Consider `COC(=O)C(N)Cc1ccc(O)c(N(CCCl)CCCl)c1` (stereo not given), for which the T/C reads like this: (dose: 0.01 mg/kg/injection, schedule: Q01DX009 (ip), vehicle: saline) 116 % of control; (dose: 0.25 mg/kg/injection, schedule: Q01DX009 (ip), vehicle: saline) 205 % of control; (dose: 0.5 mg/kg/injection, schedule: Q01DX009 (ip), vehicle: saline) 204 % of control; (dose: 1.0 mg/kg/injection, schedule: Q01DX009 (ip), vehicle: saline) 194 % of control; (dose: 2.5 mg/kg/injection, schedule: Q01DX001 (ip), vehicle: saline) 116 % of control; under setting [1], 168 % of control. In addition, the T/C under setting [2] was 213 % of control.

With `Cc1nc(N)c2nc(-c3ccc(N(CCO)CCO)cc3)c(N)nc2n1`, the T/C reads like this: under setting [8], 98 % of control; under setting [9], 95 % of control; (dose: 400.0 mg/kg/injection, schedule: Q01DX001 (ip), vehicle: saline) 89 % of control.

Turning to `CNc1ccccc1C(=O)N/N=C/c1ccc(O)c(OC)c1`, the T/C was 99 % of control (dose: 100.0 mg/kg/injection, schedule: Q04DX002 (ip), vehicle: Klucel (hydroxypropylcellulose) (HPC)); 93 % of control (dose: 200.0 mg/kg/injection, schedule: Q04DX002 (ip), vehicle: Klucel (hydroxypropylcellulose) (HPC)); 96 % of control (dose: 400.0 mg/kg/injection, schedule: Q04DX002 (ip), vehicle: Klucel (hydroxypropylcellulose) (HPC)).

For the molecule `CCO/C=C1\SC(=S)N(c2ccc(OCC)cc2)C1=O`, the T/C is 98 % of control (dose: 100.0 mg/kg/injection, schedule: Q01DX009 (ip), vehicle: Klucel (hydroxypropylcellulose) (HPC)); 98 % of control under setting [3]; 95 % of control (dose: 200.0 mg/kg/injection, schedule: Q01DX009 (ip), vehicle: Klucel (hydroxypropylcellulose) (HPC)); 98 % of control under setting [4]; 98 % of control (dose: 400.0 mg/kg/injection, schedule: Q01DX009 (ip), vehicle: Klucel (hydroxypropylcellulose) (HPC)); 97 % of control under setting [5].

Regarding `NC(=O)N1C(=O)CC(Sc2ccc(Cl)cc2)C1=O` (stereo not given), the T/C under setting [6] was 97 % of control; the T/C (dose: 200.0 mg/kg/injection, schedule: Q01DX001 (ip), vehicle: carboxymethylcellulose (CMC)) was 100 % of control; the T/C under setting [7] is 105 % of control.

As to `O=C(/C=C/c1ccccc1)C1(c2ccccc2)CC1`, the T/C was 98 % of control (dose: 100.0 mg/kg/injection, schedule: Q01DX001 (ip), vehicle: Klucel (hydroxypropylcellulose) (HPC)); 100 % of control (dose: 200.0 mg/kg/injection, schedule: Q01DX001 (ip), vehicle: Klucel (hydroxypropylcellulose) (HPC)); 98 % of control (dose: 400.0 mg/kg/injection, schedule: Q01DX001 (ip), vehicle: Klucel (hydroxypropylcellulose) (HPC)).

With `O=[N+]([O-])c1ccc(/C=C/C=C/c2ccc(Cl)cc2Cl)cc1`, the T/C reads like this: (dose: 100.0 mg/kg/injection, schedule: Q01DX009 (ip), vehicle: saline with Tween-80) 94 % of control; (dose: 200.0 mg/kg/injection, schedule: Q01DX009 (ip), vehicle: saline with Tween-80) 94 % of control.

Turning to `CC1C=C2C(=O)C=C3OCOC34Oc3cc5c(cc3C(C1C)C24)OCO5` (stereo not given), the T/C is 94 % of control under setting [3], 97 % of control under setting [4] and 97 % of control under setting [5].
